Data from US7090834B1, “Vascular endothelial cell growth factor variants and uses thereof” (Genentech, Inc., priority 1999, dated 2006).

Columns and labels:
corneal angiogenesis = experiment: Corneal pocket angiogenesis assay; format: in vivo, Sprague-Dawley rats; conditions: rat, pellet with 200 ng growth factor, day 6, FIGS. 15A and 15B
Method: Assays were performed as described by Polyerini et al., Methods Enzymol., 198:440–450 (1991) with the following modifications. Sprague-Dawley rats were anesthetized using a gas (isoflurane)/injectable ketamine (80 mg/kg)/xylazine (15 mg/kg) combination. The eyes were gently proptosed and secured in place using nontraumatic forceps. With a #15 blade, a 1.5 mm incision was made slightly below the center of the cornea. Using a micro spatula (ST80017, ASSI), the incision was carefully blunt-dissected through the stroma toward the outer canthus of the eye. […] After surgery, the eyes were coated with gentamicin ointment. At day 6, the animals were injected with high molecular weight FITC-dextran and euthanized to allow for visualization of the vasculature. Corneal whole mounts were made of the enucleated eyes and measurements of the neovascular area completed using computer-assisted image analysis (Image-Pro Plus).

PLC-gamma in HUVEC cells = experiment: PLC-gamma tyrosine phosphorylation after immunoprecipitation; format: cell-based, human; conditions: 20 ng/ml, 5 minutes, FIG. 13A
Method: In order to determine which VEGF receptor(s) are involved in PLC-gamma activation in primary endothelial cells, HUVEC cells were treated with native VEGF or VEGF receptor-selective variants and PLC-gamma phosphorylation was assessed after immunoprecipitation.
Passage 4–7 HUVEC cells (Cell Systems, Kirkland, Wash.) were grown in Cell System's complete medium (AZ0-500) with 10% fetal calf serum and growth factors on gelatin-coated dishes and made quiescent by 14 hour starvation in 0.2% serum. […] The cells were then lysed in 0.5–1 ml RIPA buffer containing 0.1 mM sodium orthovanadate, 5 mM para-nitrophenylphosphate, 10 mM sodium fluoride, 0.5 micromolar okadaic acid and a protease inhibitor cocktail (Roche MB 1836145). PLC-gamma was then immunoprecipitated from whole cell lysates using monoclonal antibodies (Upstate Biotechnology) and analyzed for tyrosine phosphorylation (FIG. 13A) or lysates were immunoprecipitated with monoclonal antibodies against p85 PI 3′-kinase (purchased from Transduction Labs (P13020) and Neomarkers (MS424-P)) and tested for phosphotyrosine using phosphotyrosine antibodies PY20 or E120H (Transduction Labs) (FIG. 13B). Immunoprecipitation was conducted as follows. Protein A/G beads (Pierce) were blocked for nonspecific protein binding in 50 mM HEPES pH 7.2, 0.1% TX-100, 150 mM NaCl and 1 mg/ml ovalbumin for 30 minutes. Antibodies were precoupled in the same buffer for 1 hour at 4° C. with head over end rotation and beads were washed 3 times in lysis buffer. Beads were added to the lysates and rotated overnight. Beads were washed sequentially in 50 mM Tris pH 7.6, 150 mM NaCl, 1% TX-100, 1 mM CaCl2; 50 mM Tris pH 7.6, 500 mM NaCl, 0.1% TX-100, 1 mM CaCl2 and 50 mM Tris pH 7.6, 150 mM NaCl, 0.05% TX-100, 1 mM CaCl2. Beads were then resuspended in 2× sample buffer and boiled. Supernatants were applied directly to 4–12% Tris-Glycine gradient gels (Novex).

HUVEC cells = experiment: HUVEC migration, modified Boyden chamber assay; format: cell-based, human; conditions: 18 hour assay, FIG. 14A
Method: One of the central aspects of VEGF action on endothelial cells is its ability to act as a chemoattractant and stimulate the migration of endothelial cells. HUVEC cell migration was analyzed in a modified Boyden chamber assay as follows.
Falcon 8.0 micron filter inserts (Falcon 3097) were coated with type 1 collagen (VITROGEN, COHESION). HUVEC (obtained from Cell Systems, <passage 8) were grown in Cell Systems complete media (4ZO-500) with 10% FCS. Cells were trypsinized and transferred to EBM (Endothelial basal media, Clonetics) with 0.1% BSA for the assay. Cells were plated at 5×10^4 per upper chamber. […] The assay was routinely an 18 hour assay at 37° C. For the LY294002 inhibitor experiments, cells were allowed to adhere for 30 minutes prior to addition of the inhibitor. 20 minutes after inhibitor addition, VEGF was added to the bottom well and the assay was allowed to proceed for only 4 hours to avoid the occurrence of apoptosis associated with the treatment of these primary cells with LY294002 (purchased from Biomol).
Cells were removed from the upper side of the membrane by scraping with a polyurethane swab and then the remaining cells on the bottom side of the membrane were fixed with methanol. Cells were stained with Yo-Pro Iodide nuclear stain (Molecular Probes) and counted under low power fluorescence using an Image-Pro cell recognition program.

[1] = test system: ERK1 and ERK2 in HUVEC cells; experiment: Activation of MAP kinases, ERK1/ERK2 phosphorylation Western blot; format: cell-based, human; conditions: 50 ng/ml or 10 ng/ml, 5 minutes, FIG. 12A
Method: (§1) Passage 4–7 HUVEC cells (Cell Systems, Kirkland, Wash.) were grown in Cell System's complete medium (AZ0-500) with 10% fetal calf serum and growth factors on gelatin-coated dishes and made quiescent by 14 hour starvation in 0.2% serum. […] The HUVEC cells were then lysed in 0.5–1 ml RIPA buffer containing 0.1 mM sodium orthovanadate, 5 mM para-nitrophenylphosphate, 10 mM sodium fluoride, 0.5 micromolar okadaic acid and a protease inhibitor cocktail (Roche MB 1836145). Western blot analysis was then conducted, probing for phosphorylated ERK1 or ERK2 using anti-phospho ERK antiserum (Promega).

[2] = test system: p38 stress-activated MAP kinase in HUVEC cells; experiment: p38 MAP kinase phosphorylation Western blot; format: cell-based, human; conditions: 50 ng/ml or 10 ng/ml, 5 minutes, FIG. 12B
Method: VEGF has previously been reported to stimulate the stress-activated, p38 MAP kinase [Rousseau et al., Oncogene, 15:2169–2177 (1997); Yu et al., J. Cell. Phys., 178:235–246 (1999)].
as §1, with “The” for “The HUVEC”, “The phosphorylation state of p38 stress-activated MAP kinase” for “Western blot analysis”, “assessed with an” for “then conducted, probing for phosphorylated ERK1 or ERK2 using”, “p38 specific” for “ERK”, “(NEB).” for “(Promega).”

[3] = test system: MMP-9 secretion by human aorta smooth muscle cells (ASMC); experiment: Matrix metalloprotease 9 assay (gelatin zymography); format: cell-based; conditions: 40 ng/ml, 24 hours, compared to native VEGF(1–109) or PlGF, FIG. 11
Method: An assay that measures the secretion of matrix metalloprotease 9 following activation of Flt-1 expressed on human smooth aorta muscle cells was conducted (Wang and Keiser, Circ. Res., 83:832–840 (1998)). Human aorta smooth muscle cells (ASMC) (Clonetics) were maintained in SM2 media (Clonetics) at 37° C. in 5% CO2 and 95% ambient air in the presence of 10% fetal bovine serum in 6-well polystyrene plates (Becton-Dickinson). When, cells attained 90% confluence, they were growth-arrested for 24 hours in serum-free medium containing 0.2% bovine serum albumin (BSA). […] After electrophoresis, proteins were renatured by incubation of the gels for 30 minutes at room temperature in Renaturing Buffer and in Developing Buffer (Novex) for overnight at 37° C. The gels were stained with 0.25% Coomassie Brilliant Blue (Sigma). Gelatinase activity was identified as lightly stained or clear bands following destaining.
Shown is a representative zymogram of one of two independent experiments. Fold change represents the relative band density of the VEGF(1–109)-, VEGF(1–109) variants- or PlGF-treated groups versus the vehicle-treated (PBS) control.

KDR receptor = experiment: RIA assay, binding to KDR receptor; conditions: compared to native VEGF, FIG. 8A
Sequence of KDR receptor (P35968 20-327 limits assumed): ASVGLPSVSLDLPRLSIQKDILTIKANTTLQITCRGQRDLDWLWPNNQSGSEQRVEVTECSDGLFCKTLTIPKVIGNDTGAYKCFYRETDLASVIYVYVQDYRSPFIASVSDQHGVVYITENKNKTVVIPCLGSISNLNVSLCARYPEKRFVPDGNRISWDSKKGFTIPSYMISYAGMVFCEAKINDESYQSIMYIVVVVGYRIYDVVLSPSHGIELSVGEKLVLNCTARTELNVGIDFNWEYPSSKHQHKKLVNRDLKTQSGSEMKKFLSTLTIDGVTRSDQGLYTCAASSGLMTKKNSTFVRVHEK
Method: (§2) Various assays were conducted to examine the properties and biological activities of the I43A/I46A/Q79A/I83A Flt-sel variant. For example, quantitative binding measurements were carried out using a soluble radio-immuno receptor-binding assay (RIA), as described in Example 6 above.

Flt-1 receptor = experiment: RIA assay, binding to FLT-1 receptor; conditions: FIG. 8B
Sequence of Flt-1 receptor (P17948 27-331 limits assumed): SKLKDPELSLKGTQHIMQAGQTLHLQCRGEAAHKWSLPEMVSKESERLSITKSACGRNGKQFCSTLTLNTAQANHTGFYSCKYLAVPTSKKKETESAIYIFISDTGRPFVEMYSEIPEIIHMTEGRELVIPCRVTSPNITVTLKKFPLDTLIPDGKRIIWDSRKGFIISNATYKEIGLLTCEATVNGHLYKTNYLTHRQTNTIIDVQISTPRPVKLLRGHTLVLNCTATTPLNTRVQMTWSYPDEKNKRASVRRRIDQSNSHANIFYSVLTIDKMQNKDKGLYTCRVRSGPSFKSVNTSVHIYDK
Method: as §2

[4] = biological target: T1, KDR transfected NIH3T3 cells (Homo sapiens, UniProt P35968); experiment: Receptor-transfected cell binding assay, KDR; conditions: displacement of 125I-VEGF, 4° C., three hours, FIG. 5
T1 construct: expressed in transfected cells; host or cells: NIH3T3 cells
T1 sequence (P35968 20-1356): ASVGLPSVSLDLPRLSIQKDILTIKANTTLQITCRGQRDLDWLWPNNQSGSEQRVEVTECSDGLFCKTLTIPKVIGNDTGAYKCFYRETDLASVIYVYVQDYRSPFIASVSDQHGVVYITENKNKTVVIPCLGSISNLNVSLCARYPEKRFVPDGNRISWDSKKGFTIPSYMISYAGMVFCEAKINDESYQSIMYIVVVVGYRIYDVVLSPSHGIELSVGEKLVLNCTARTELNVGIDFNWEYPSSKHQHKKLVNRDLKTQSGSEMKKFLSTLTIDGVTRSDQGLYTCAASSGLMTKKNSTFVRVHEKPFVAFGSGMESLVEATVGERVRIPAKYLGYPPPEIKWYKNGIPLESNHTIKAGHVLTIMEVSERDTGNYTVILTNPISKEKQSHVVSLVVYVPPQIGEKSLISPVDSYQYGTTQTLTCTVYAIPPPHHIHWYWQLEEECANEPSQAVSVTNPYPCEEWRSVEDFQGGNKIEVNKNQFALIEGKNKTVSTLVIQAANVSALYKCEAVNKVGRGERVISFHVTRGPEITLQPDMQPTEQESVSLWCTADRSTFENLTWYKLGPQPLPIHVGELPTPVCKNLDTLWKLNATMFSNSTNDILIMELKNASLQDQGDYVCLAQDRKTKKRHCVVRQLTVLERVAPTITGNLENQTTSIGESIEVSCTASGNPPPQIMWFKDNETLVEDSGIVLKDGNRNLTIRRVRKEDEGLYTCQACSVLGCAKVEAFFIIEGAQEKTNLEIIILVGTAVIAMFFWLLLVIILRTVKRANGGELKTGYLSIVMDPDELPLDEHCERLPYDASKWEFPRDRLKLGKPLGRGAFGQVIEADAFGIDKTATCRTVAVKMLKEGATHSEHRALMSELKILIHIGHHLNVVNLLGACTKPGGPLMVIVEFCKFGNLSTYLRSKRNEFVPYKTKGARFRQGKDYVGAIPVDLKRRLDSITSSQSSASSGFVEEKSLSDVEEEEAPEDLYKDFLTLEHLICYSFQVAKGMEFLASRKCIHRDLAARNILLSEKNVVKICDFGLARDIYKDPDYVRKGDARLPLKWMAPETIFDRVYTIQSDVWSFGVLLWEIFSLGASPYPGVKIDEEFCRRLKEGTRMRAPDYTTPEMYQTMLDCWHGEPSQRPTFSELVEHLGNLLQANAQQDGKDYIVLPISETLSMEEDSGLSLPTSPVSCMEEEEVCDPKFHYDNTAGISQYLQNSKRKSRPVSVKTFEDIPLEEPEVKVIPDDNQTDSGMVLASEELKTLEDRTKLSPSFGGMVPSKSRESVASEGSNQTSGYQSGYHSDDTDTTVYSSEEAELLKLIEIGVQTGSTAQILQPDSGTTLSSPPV
Method: (§3) The assay is described in detail in Example 7. Each point represents the average of duplicate determinations, and errors are estimated to be less than 15% of the values.
(§4) KDR or Flt-1 transfected NIH3T3 cells were prepared as described by Fuh et al., J. Biol. Chem., 273:11187–11204 (1998). The transfected cells were maintained in F12 media supplemented with 10% FBS and 400 ug/ml G418 (GibcoBRL). For the binding assays, the cells were plated in 12-wells plates at 1×10^6/well to reach confluency next day. The cells were then washed and blocked in Hank's buffered saline (HBS) with 1% BSA for one hour before adding ^125I-VEGF (1–109) (prepared by standard chloramine-T methods) and increasing concentrations of unlabeled VEGF variants. 50 pM and 10 pM of labeled VEGF (1–109) was used for KDR and Flt-1 cell binding, respectively. The plates were incubated at 4° C. for three hours and then washed two times with HBS with 0.5% BSA. The bound, labeled VEGF was collected by solubilizing the washed cells with 1N NaOH, and then counted in a gamma-counter (Isodata, ICN).

[5] = biological target: T2, Flt-1 transfected NIH3T3 cells (Homo sapiens, UniProt P17948); experiment: Receptor-transfected cell binding assay, Flt-1; conditions: FIG. 6
T2 construct: expressed in transfected cells; host or cells: NIH3T3 cells
T2 sequence (P17948 27-1338): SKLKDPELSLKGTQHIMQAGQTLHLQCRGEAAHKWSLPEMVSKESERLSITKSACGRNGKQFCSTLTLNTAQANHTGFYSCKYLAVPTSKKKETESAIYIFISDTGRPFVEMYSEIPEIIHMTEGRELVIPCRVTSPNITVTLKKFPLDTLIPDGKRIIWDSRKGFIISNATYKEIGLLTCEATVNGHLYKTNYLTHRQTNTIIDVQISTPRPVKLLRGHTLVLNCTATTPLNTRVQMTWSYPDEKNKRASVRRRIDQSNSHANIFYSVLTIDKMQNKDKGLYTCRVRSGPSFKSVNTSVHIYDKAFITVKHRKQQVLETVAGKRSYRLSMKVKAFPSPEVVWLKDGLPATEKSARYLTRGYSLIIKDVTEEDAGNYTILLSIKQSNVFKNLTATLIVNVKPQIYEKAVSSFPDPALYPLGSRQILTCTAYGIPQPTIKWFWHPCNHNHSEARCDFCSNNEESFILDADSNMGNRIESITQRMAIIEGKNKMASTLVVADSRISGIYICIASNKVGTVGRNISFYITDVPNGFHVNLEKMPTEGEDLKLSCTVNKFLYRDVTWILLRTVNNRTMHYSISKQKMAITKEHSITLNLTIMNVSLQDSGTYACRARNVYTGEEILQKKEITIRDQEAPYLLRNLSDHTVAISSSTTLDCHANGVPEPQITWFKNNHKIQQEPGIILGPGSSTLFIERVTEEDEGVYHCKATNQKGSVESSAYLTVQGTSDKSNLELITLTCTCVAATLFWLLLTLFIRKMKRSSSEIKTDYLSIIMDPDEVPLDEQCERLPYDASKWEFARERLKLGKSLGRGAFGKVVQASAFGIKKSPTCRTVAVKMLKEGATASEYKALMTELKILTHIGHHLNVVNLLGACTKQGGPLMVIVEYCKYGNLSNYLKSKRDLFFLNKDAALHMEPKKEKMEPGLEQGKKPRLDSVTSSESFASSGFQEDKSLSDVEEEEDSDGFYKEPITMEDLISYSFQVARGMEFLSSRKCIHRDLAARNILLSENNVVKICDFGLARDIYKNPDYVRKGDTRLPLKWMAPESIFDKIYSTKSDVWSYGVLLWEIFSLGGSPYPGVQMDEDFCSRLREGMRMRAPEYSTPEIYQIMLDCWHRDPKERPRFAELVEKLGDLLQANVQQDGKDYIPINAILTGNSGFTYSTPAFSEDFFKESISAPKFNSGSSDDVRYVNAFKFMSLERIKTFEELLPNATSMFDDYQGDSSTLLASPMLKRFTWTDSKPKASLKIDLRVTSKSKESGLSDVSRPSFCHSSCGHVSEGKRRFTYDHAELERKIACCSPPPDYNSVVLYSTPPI
Method: as §3, §4

| fold reduced KDR-binding affinity (RIA) (KDR receptor) | binding to KDR-transfected NIH3T3 cells [4] | binding to Flt-1-transfected cells [5] | Molecule | induction of corneal angiogenesis (corneal angiogenesis) | PLC-gamma phosphorylation (PLC-gamma in HUVEC cells) | promotion of HUVEC cell migration (HUVEC cells) | phosphorylation of ERK1 and ERK2 [1] | p38 phosphorylation [2] | stimulation of MMP-9 secretion [3] | affinity for Flt-1 compared to native protein (RIA) (Flt-1 receptor) |
| --- | --- | --- | --- | --- | --- | --- | --- | --- | --- | --- |
| – | – | – | LK-VRB-2f: full length 1–165 VEGF variant with D63S/G65M/L66R | as efficient as native VEGF in inducing corneal angiogenesis | able to stimulate PLC-gamma phosphorylation to a similar extent | as effective as the native VEGF | triggered phosphorylation of ERK1 and ERK2 | able to stimulate p38 phosphorylation | – | – |
| at least 470 fold | no detectable binding | slightly improved binding | Flt-sel: VEGF (1–109) variant with alanine substitutions at Ile 43, Ile 46, Gln 79 and Ile 83; Flt-1 selective (protein) APMAEGGGQNHHEVVKFMDVYQRSYCHPIETLVDIFQEYPDEAEYAFKPSCVPLMRCGGCCNDEGLECVPTEESNITMAIMRAKPHQGQHIGEMSFLQHNKCECRPKKD | – | – | – | – | – | fully active | essentially identical to that of the native protein |
